{"source": "paper PMC12494546", "about": "“Structural basis of heme scavenging by the ChtA and HtaA hemophores in Corynebacterium diphtheriae” (The Journal of Biological Chemistry, 2025)", "key": {"ChtA^CR (WT)": {"target": "T1, ChtA^CR (WT) (Corynebacterium diphtheriae, UniProt Q6NGJ3)", "T1 construct": "gene DIP1520; CR domain, ChtA residues 112-291 (K112-G291); N-terminal SUMO/6xHis tag removed by ULP1; apo-form", "T1 sequence (Q6NGJ3 entry or part of it)": "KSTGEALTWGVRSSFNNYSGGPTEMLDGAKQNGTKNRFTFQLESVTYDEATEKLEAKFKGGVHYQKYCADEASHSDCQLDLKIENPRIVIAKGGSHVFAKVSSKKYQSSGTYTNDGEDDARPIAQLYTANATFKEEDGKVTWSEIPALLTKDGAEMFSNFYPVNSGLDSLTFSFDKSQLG", "assay": "Isothermal titration calorimetry with apo-protein injected into hemin chloride at 25 °C in 50 mM Tris-HCl pH 8.0, 200 mM NaCl, 5% DMSO, fitted to a one-site binding model.", "details": "SEM, n = 3", "source_text": "(§1) Isothermal titration calorimetry\n(§2) Protein samples were equilibrated in titration buffer supplemented with 5% (v/v) DMSO. […] Binding isotherms were fit to a one-site binding model using the program ORIGIN ([91])."}, "K177G": {"target": "T2, K177G (Corynebacterium diphtheriae, UniProt Q6NGJ3, K177G)", "T2 construct": "gene DIP1520; CR domain, ChtA residues 112-291; N-terminal SUMO/6xHis tag removed by ULP1; apo-form", "T2 sequence (Q6NGJ3 112-291 K177G)": "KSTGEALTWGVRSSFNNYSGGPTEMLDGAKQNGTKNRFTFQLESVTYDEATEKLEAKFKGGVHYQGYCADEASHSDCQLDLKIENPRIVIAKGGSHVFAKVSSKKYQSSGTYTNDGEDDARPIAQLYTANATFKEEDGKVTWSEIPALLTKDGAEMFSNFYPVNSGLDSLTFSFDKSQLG", "assay": "Isothermal titration calorimetry with apo-protein injected into hemin chloride at 25 °C in 50 mM Tris-HCl pH 8.0, 200 mM NaCl, 5% DMSO, fitted to a one-site binding model.", "details": "SEM, n = 3", "source_text": "as §1, §2"}, "K177G + Y178H": {"target": "T3, K177G + Y178H (Corynebacterium diphtheriae, UniProt Q6NGJ3, K177G/Y178H)", "T3 construct": "gene DIP1520; CR domain, ChtA residues 112-291; N-terminal SUMO/6xHis tag removed by ULP1; apo-form", "assay": "Isothermal titration calorimetry with apo-protein injected into hemin chloride at 25 °C in 50 mM Tris-HCl pH 8.0, 200 mM NaCl, 5% DMSO, fitted to a one-site binding model.", "details": "SEM, n = 3", "source_text": "as §1, §2"}, "Y129A": {"target": "T4, Y129A (Corynebacterium diphtheriae, UniProt Q6NGJ3, Y129A)", "T4 construct": "gene DIP1520; CR domain, ChtA residues 112-291; N-terminal SUMO/6xHis tag removed by ULP1; apo-form", "assay": "Isothermal titration calorimetry with apo-protein injected into hemin chloride at 25 °C in 50 mM Tris-HCl pH 8.0, 200 mM NaCl, 5% DMSO, fitted to a one-site binding model.", "details": "n = 3", "source_text": "as §1, §2"}, "Y178A": {"target": "T5, Y178A (Corynebacterium diphtheriae, UniProt Q6NGJ3, Y178A)", "T5 construct": "gene DIP1520; CR domain, ChtA residues 112-291; N-terminal SUMO/6xHis tag removed by ULP1; apo-form", "T5 sequence (Q6NGJ3 112-291 Y178A)": "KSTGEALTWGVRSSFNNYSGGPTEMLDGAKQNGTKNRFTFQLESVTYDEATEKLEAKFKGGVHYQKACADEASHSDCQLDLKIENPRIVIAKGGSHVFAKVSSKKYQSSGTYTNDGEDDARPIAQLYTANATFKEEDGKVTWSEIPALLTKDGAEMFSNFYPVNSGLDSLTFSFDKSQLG", "assay": "Isothermal titration calorimetry with apo-protein injected into hemin chloride at 25 °C in 50 mM Tris-HCl pH 8.0, 200 mM NaCl, 5% DMSO, fitted to a one-site binding model.", "details": "SEM, n = 3", "source_text": "as §1, §2"}, "Y178H": {"target": "T6, Y178H (Corynebacterium diphtheriae, UniProt Q6NGJ3, Y178H)", "T6 construct": "gene DIP1520; CR domain, ChtA residues 112-291; N-terminal SUMO/6xHis tag removed by ULP1; apo-form", "assay": "Isothermal titration calorimetry with apo-protein injected into hemin chloride at 25 °C in 50 mM Tris-HCl pH 8.0, 200 mM NaCl, 5% DMSO, fitted to a one-site binding model.", "details": "SEM, n = 3", "source_text": "as §1, §2"}, "HtaA^CR1": {"target": "T7, HtaA^CR1 (Corynebacterium diphtheriae, UniProt Q6NIZ1)", "T7 construct": "gene DIP0625; N-terminal CR domain CR1, HtaA residues 36-221 (methods; S37-G214 in results); N-terminal SUMO/6xHis tag removed by ULP1", "T7 sequence (Q6NIZ1 entry or part of it)": "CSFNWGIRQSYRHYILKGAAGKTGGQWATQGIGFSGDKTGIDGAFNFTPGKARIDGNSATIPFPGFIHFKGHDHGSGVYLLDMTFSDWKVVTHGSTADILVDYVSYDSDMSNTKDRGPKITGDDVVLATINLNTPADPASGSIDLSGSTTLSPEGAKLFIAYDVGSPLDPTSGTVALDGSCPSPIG", "assay": "Hemin partitioning between pairs of CR domains at equilibrium measured by native nano-ESI-MS in 50 mM ammonium acetate pH 6.9 at 24 °C, with Krel converted to KD using the ITC KD of ChtA^CR as reference.", "type": "binding", "details": "read-out: estimated KD values for hemin", "source_text": "(§3) The C. diphtheriae hemin-uptake system contains six CR domains that are located at distinct sites outside the cell (Fig. 1). […] Together, they represent nearly the full complement of C. diphtheriae’s CR domains (only the domains from ChtB and ChtC are missing, but they are expected to have similar binding properties as their paralogs, HtaB and ChtA, respectively). […] Similar measurements were made for the following protein pairs: HtaA^CR2/HtaB^CR, HtaA^CR1/HtaB^CR, HtaA^CR2/HtaA^CR1, ChtA^CR/HtaA^CR2, and ChtA^CR/HtaB^CR (Table S4).\n(§4) nESI-MS was used for ligand (heme)-competition experiments between CR domain pairs to determine their relative heme dissociation constant Krelative (Krel) ([37], [56]). In this approach, two different CR domains (e.g. a >90% heme-loaded “heme donor” and a <10% heme-loaded “heme acceptor” CR domain) are mixed and allowed to come to equilibrium (>6 h, 24 °C). The resulting mixture is then analyzed by nESI-MS, where the apo- and holo-abundance of each CR domain is determined from the sum peak intensity from each of their charge states as described previously ([37]). The relative affinity between the CR pair tested can be determined by their nESI-MS abundances according to Equation 1, which is derived from the ratio of each CR’s KD for heme. Importantly, this analysis is independent of [heme] and Krel should be consistent across different concentrations of [heme donor] and [heme acceptor]; thus, we used at least three different holo-donor and apo-acceptor stoichiometry ratios to determine each Krel reported in Table S4.(eq. 1) KRelative=[CR^hemeacceptor][CR^hemedonor·heme]/[CR^hemedonor][CR^hemeacceptor·heme]=Ab(CR^hemeacceptor)Ab(CR^hemedonor·heme)/Ab(CR^hemedonor)Ab(CR^hemeacceptor·heme)\n(§5) For nESI-MS heme-competition experiments, CR domains were first buffer-exchanged into 50 mM ammonium acetate (pH 6.9) using dialysis or gel filtration and protein concentration was determined by bicinchoninic acid assay or UV-visible absorbance at 280 nm. […]"}, "HtaA^CR2": {"target": "T8, HtaA^CR2 (Corynebacterium diphtheriae, UniProt Q6NIZ1)", "T8 construct": "gene DIP0625; C-terminal CR domain CR2, HtaA residues 344-506 (G344-G506); N-terminal SUMO/6xHis tag removed by ULP1", "T8 sequence (Q6NIZ1 entry or part of it)": "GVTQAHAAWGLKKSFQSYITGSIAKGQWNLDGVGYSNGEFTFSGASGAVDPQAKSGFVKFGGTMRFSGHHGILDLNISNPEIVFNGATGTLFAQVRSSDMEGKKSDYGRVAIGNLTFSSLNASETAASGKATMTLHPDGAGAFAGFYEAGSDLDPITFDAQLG", "assay": "Hemin partitioning between pairs of CR domains at equilibrium measured by native nano-ESI-MS in 50 mM ammonium acetate pH 6.9 at 24 °C, with Krel converted to KD using the ITC KD of ChtA^CR as reference.", "type": "binding", "details": "read-out: estimated KD values for hemin", "source_text": "as §3, §4, §5"}, "HtaB^CR": {"target": "T9, HtaB^CR (Corynebacterium diphtheriae, UniProt Q6NIY7)", "T9 construct": "gene DIP0629; CR domain, HtaB residues 30-273; N-terminal SUMO/6xHis tag removed by ULP1", "T9 sequence (Q6NIY7 entry or part of it)": "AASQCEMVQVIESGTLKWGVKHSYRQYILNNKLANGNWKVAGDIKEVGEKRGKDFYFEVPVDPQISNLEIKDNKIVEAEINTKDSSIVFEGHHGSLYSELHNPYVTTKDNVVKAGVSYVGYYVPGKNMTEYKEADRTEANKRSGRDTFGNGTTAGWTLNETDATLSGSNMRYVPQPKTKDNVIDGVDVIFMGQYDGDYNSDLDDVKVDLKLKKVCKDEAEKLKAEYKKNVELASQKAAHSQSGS", "assay": "Hemin partitioning between pairs of CR domains at equilibrium measured by native nano-ESI-MS in 50 mM ammonium acetate pH 6.9 at 24 °C, with Krel converted to KD using the ITC KD of ChtA^CR as reference.", "type": "binding", "details": "read-out: estimated KD values for hemin", "source_text": "as §3, §4, §5"}}}
{"compound": "C=CC1=C(C)c2cc3[nH]c(cc4nc(cc5[nH]c(cc1n2)c(C)c5CCC(=O)O)C(CCC(=O)O)=C4C)c(C)c3C=C.[Fe+3]", "note": "[hemin, ferric heme (iron(III)-protoporphyrin IX; used as hemin chloride)]", "values": [{"measurement": "Kd", "setting": "ChtA^CR (WT)", "result": "22.4 ± 5.3", "unit": "nM"}, {"measurement": "Kd", "setting": "K177G", "result": "23.6 ± 0.8", "unit": "nM"}, {"measurement": "Kd", "setting": "K177G + Y178H", "result": "27.1 ± 9", "unit": "nM"}, {"measurement": "Kd", "setting": "Y129A", "result": "> 500", "unit": "nM"}, {"measurement": "Kd", "setting": "Y178A", "result": "46.6 ± 9.6", "unit": "nM"}, {"measurement": "Kd", "setting": "Y178H", "result": "54.8 ± 1.9", "unit": "nM"}, {"measurement": "Kd", "setting": "HtaA^CR1", "result": 1.1, "unit": "nM"}, {"measurement": "Kd", "setting": "HtaA^CR2", "result": 0.85, "unit": "nM"}, {"measurement": "Kd", "setting": "HtaB^CR", "result": 5.4, "unit": "nM"}]}
